Assay results reported in patent publication US20240307409A1, “ARGININE METHYLTRANSFERASE INHIBITOR AND USE THEREOF” (Cytosinlab Therapeutics Co., Ltd., priority 2021, published 2024).

Assays:
PRMT1 = PRMT1 (Homo sapiens, UniProt Q99873); test: PRMT1 enzyme activity test; type: biochemical; settings: 0.5 nM PRMT1, 3H-SAM, peptide
Experimental: PRMT1 enzyme activity test were performed in a buffer prepared on the same day 5 consisting of 10 mMTirs-HCl (pH=8.0), 0.01% Tween-20 and 1 mM DTT. The compounds were prepared to the highest inhibitor concentration ultimately required in the 100× reaction with 100% DMSO and then transferred to one well of a 384-well Echo plate (Echo-eligible 384-well polypropylene microplates 2.0, transparent, flat-bottomed) and sequentially diluted in the next well with a 3-fold dilution of 100% DMSO, and so on, with a total of 10 concentrations based on Precision. 100% DMSO was added to two empty wells to serve as control well without compound and control well without enzyme in the same 384-well Echo plate. 250 nL of compound was transferred from each well of the 384-well Echo plate to a 384-well assay plate (384-well polypropylene storage microplate) via the Echo 550 liquid processor. For wells with compounds and control well without compound, a mixture (15 uL) containing PRMT1 enzyme was added to the 384-well assay plate. For control wells without enzyme, the mixture containing the assay buffer (15 uL) was added instead. The compounds were allowed to incubate with PRMT1 for 15 minutes at room temperature, and then a mixture containing ^3H-SAM and peptide (10 uL) was added to start the reaction (final volume=25 uL). The final concentrations of the components were as follows: 0.5 nM for PRMT1, 0.25 uM for ^3H-SAM, 0.1 uM for the peptide, and 1% DMSO. After 120 min of incubation, the assay was terminated by the addition of non-radiolabeled SAM (5 uL) to a final concentration of 125 uM, which diluted 3H-SAM to a level at which its incorporation into the peptide substrate was no longer detected. 25 μL of the reaction solution from the 384-well assay plate was then transferred to a 384-well detection plate (Streptavidin FlashPlate HTS PLUS, high volume, 384 wells). The biotinylated peptide was allowed to bind to the surface of the antibiotic protein streptavidin for at least 60 minutes at room temperature. The Flashplate was then washed three times with 0.1% Tween-20 in a BioTek plate washer. Plates were read on a microplate counter (MicroBeta2) to measure the amount of ^3H-labeled peptide bound to the surface of the detection plate, measured in counts per minute (cpm).
The raw data were copied from the Reader and the inhibition values were calculated in Excel by Equation (1), Equation (1): Inh %=(CPMmax−CPMcmpd)/(CPMmax−CPMmin)*100, wherein the Max signal was obtained from the enzyme-substrate interaction and the Min signal was obtained from the substrate. IC50 values were obtained by fitting the data through equation (2) using XLFit add-in for Excel version […]. Equation (2): Y=Bottom+(Top-Bottom)/(1+((IC50/X)[…])), wherein, Y represents inhibition percentage and X represents compound concentration.

Toledo cells = test: Toledo cell proliferation inhibition assay; type: cell-based; settings: Homo sapiens, Toledo, 144 h; six-day assay, CellTiter-Glo
Experimental: • A. Purpose: to determine the effects of compounds on Toledo cells through a six-day cell proliferation assay. • B. Reagents and materials: • 1. Cell culture medium: RPMI 1640+10% FBS • 2. 384-well cell culture plate (Corning, item #3764) • 3. 0.4% Taipan Blue Staining Solution (Thermo Fisher, item #T10282) • 4. cell counting plate (Thermo Fisher, item #C10228) • 5. 50 ml reagent reservoir (Corning, item #4870) • 6. 50 ml conical sterile polypropylene centrifuge tube (Thermo Fisher, item #339653) • 7. Automatic cell counter (Thermo Fisher, item #AMQAX1000) • 8. CellTiter-Glo Luminescent Cell Viability Detection Reagent (Promega, item #G7572) • 9. SpectraMax i3x Multi-Mode Enzyme Labeling Instrument (Megaman Molecular Instruments, item #5024062) • C. Experimental method • 1. Resuspending the cells with a pipette. • 2. 0.4% Taipan blue staining solution and Toledo cells were mixed in equal proportion, and the cells were counted using an automatic cell counter. • 3. Toledo cells were diluted to a final concentration of 2000 cells per well and transferred to a 50 ml reagent reservoir. • 4. Diluted Toledo cells were added to a 384-well cell culture plate, 40 ul per well. • 5. The cells were shortly centrifuged and settled. • 6. The cells were incubated in a 37° C., 5% CO2 cell culture incubator. • 7. The substrate in the CellTiter-Glo Luminescent Cell Viability Detection Reagent was mixed with the solution. • 8. After six days, the 384-well cell culture plate was taken from the incubator and 20 ul of configured CellTiter-Glo reagent was added to each well. • 9. 384-well cell culture platewasmixed in an orbital shaker for 30 minutes. • 10. Signal of luminescence was detected with a SpectraMax i3x multi-mode enzyme labeling instrument.

Sequence of PRMT1 (Q99873 whole entry): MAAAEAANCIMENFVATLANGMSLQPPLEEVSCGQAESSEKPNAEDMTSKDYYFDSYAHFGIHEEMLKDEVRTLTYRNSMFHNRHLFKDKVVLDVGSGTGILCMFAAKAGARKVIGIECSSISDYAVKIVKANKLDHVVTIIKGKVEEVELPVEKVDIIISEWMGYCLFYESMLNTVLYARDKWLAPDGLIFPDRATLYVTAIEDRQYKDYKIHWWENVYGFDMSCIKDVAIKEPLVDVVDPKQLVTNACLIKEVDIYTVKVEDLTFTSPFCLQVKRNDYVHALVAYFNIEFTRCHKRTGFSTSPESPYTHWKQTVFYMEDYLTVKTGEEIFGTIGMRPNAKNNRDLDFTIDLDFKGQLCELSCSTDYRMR

Compound | IC50 (PRMT1) | IC50 (Toledo cells)
CNCCN(C)Cc1ncccc1C1CCCOC1 (stereo not shown) [P246] | ≥ 500 nM | 
CNCCN(C)Cc1ccc(C(C)N)cc1C1CCN(c2cccc(C)c2)CC1 (stereo not shown) [P105] | < 50 nM | < 1000 nM
CCOCC1(COCC)CCN(c2cccnc2CN(C)CCNC)C1 [P248] | 50 to 500 nM | 1000 to 5000 nM
CNCCN(C)Cc1cc(F)c2[nH]ncc2c1C1CCN(c2cccc(C)c2)CC1 [P183] | < 50 nM | < 1000 nM
CNCCN(C)Cc1ccc(C)nc1C1CCN(c2cc(C)cc(Cl)c2)CC1 [P058] | < 50 nM | < 1000 nM
CNCCN(C)Cc1ncccc1C1CCN(c2ccc(OC)cc2)CC1 [P168] | < 50 nM | 1000 to 5000 nM
CNCCN(C)Cc1ccccc1N1CCCCC1 [P033] | < 50 nM | 1000 to 5000 nM
CNCCN(C)Cc1ncccc1N1CCCOCC1 [P260] | < 50 nM | 1000 to 5000 nM
CNCCN(C)Cc1ncccc1C1COc2ccccc2OC1 [P271] | < 50 nM | 1000 to 5000 nM
CNCCN(C)Cc1cc(C(=O)N(C)C)ccc1C1CCN(c2cccc(C)c2)CC1 [P100] | ≥ 500 nM | ≥ 5000 nM
CNCCN(C)Cc1ccc(=O)[nH]c1C1CCN(c2cccc(C)c2)CC1 [P211] | 50 to 500 nM | 
CNCCN(C)Cc1cc(F)ccc1C1CCN(CCc2ccc(C(F)(F)F)cc2)CC1 [P010] | < 50 nM | 1000 to 5000 nM
CNCCN(C)Cc1ccc2ncccc2c1C1=CCN(c2cccc(C)c2)CC1 [P047] | < 50 nM | 1000 to 5000 nM
CNCCN(C)Cc1ncccc1C1CCCCO1 (stereo not shown) [P247] | 50 to 500 nM | 
CCOCC1(COCC)CCC(c2c(CN(C)CCNC)ccc3[nH]ncc23)CC1 [P266, N1-((4-(4,4-bis(ethoxymethyl)cyclohexyl)-1H-indazol-5-yl)methyl)-N1,N2-dimethylethane-1,2-diamine] | < 50 nM | < 1000 nM
CNCCN(C)Cc1ncccc1N1CCC(Oc2cc(C)ccc2Cl)CC1 [P144] | < 50 nM | < 1000 nM
CNCCN(C)Cc1ccccc1C1CCCCC1 [P024] | < 50 nM | < 1000 nM
CNCCN(C)Cc1ccc(C)nc1C1CCN(c2cccc(N(C)C)c2)CC1 [P099] | < 50 nM | 1000 to 5000 nM
CNCCN(C)Cc1ncccc1N1CCc2ccccc2C1 [P127] | < 50 nM | 1000 to 5000 nM
CNCCN(C)Cc1ncccc1N1CCc2nc(SC)nc(O)c2CC1 [P329] | 50 to 500 nM | ≥ 5000 nM
CNCCN(C)Cc1ncccc1N1CCC(Oc2cnc(C)nc2)CC1 [P313] | < 50 nM | 1000 to 5000 nM
CNCCN(C)Cc1ncccc1N1CCCC1 [P197] | ≥ 500 nM | ≥ 5000 nM

Compound | IC50 (PRMT1) | IC50 (Toledo cells)
CNCCN(C)Cc1nc(N)cnc1C1CCN(c2cccc(C)c2)CC1 [P359] | 50 to 500 nM | 
CNCCN(C)Cc1ncccc1C1CCN(c2cc(C)nc(N)n2)CC1 [P321] | < 50 nM | 1000 to 5000 nM
CCN1CC2(CCC(c3cccnc3CN(C)CCNC)CC2)CC1=O (stereo not shown) [P222] | < 50 nM | ≥ 5000 nM
CNCCN(C)Cc1ncccc1N1CCc2ccc(S(C)(=O)=O)cc2CC1 [P295] | < 50 nM | 
CNCCN(C)Cc1ncccc1N1CCC(Oc2cccnc2)CC1 [P269] | < 50 nM | 1000 to 5000 nM
CNCCN(C)Cc1ncccc1C1CCN(c2ccccc2C#N)CC1 [P201] | < 50 nM | < 1000 nM
CNCCN(C)Cc1ncccc1N1CCC(O)CC1 [P294] | < 50 nM | 
CNCCN(C)Cc1ccc2nncn2c1C1CCN(c2cccc(C)c2)CC1 [P232] | 50 to 500 nM | 
CNCCN(C)Cc1ncccc1C#Cc1cccc(C)c1 [P091] | ≥ 500 nM | 
CNCCN(C)Cc1ccc(NC(=O)N(C)C)nc1C1CCN(c2cccc(C)c2)CC1 [P363] | 50 to 500 nM | 
CNCCN(C)Cc1ccc(F)cc1C1CCc2ccc(C(F)(F)F)cc2CC1 (stereo not shown) [P002] | < 50 nM | 
CNCCN(C)Cc1ccc(-c2ncc[nH]2)cc1C1CCN(c2cccc(C)c2)CC1 [P154] | < 50 nM | 
CNCCN(C)Cc1ccc(F)cc1[C@H]1CC[C@@H](Oc2cc(C(F)(F)F)cc(C(F)(F)F)c2)CC1 [P026] | ≥ 500 nM | 
CNCCN(C)Cc1ccc(N2CCOC2=O)nc1C1CCN(c2cccc(C)c2)CC1 [P360] | 50 to 500 nM | 
CNCCN(C)Cc1cc(C(N)=O)ccc1C1CCN(c2cccc(C)c2)CC1 [P220] | 50 to 500 nM | 
CNCCN(C)Cc1ccc(NCCNCC(=O)OC)nc1C1CCN(c2cccc(C)c2)CC1 [P362] | 50 to 500 nM | 
Cc1cccc(N2CCC(c3nc(N)cnc3CN(C)CCN(C)C)CC2)c1 [P368] | 50 to 500 nM | 
CNCCN(C)Cc1ccc(Nc2ncc[nH]2)nc1C1CCN(c2cccc(C)c2)CC1 [P355] | < 50 nM | 
CNCCN(C)C(C)c1ccccc1N1CCc2cc(F)c(F)cc2CC1 (stereo not shown) [P351] | 50 to 500 nM | 
CNCCN(C)Cc1ccc(F)cc1N1CCC(Oc2cc(C(F)(F)F)cc(C(F)(F)F)c2)CC1 [P032] | ≥ 500 nM | 
CNCCN(C)Cc1ccc(Nc2nc3ccccc3[nH]2)nc1C1CCN(c2cccc(C)c2)CC1 [P366] | < 50 nM | 
CNCCN(C)Cc1ncccc1C1CCOCC1 [P245] | < 50 nM | 

Compound | IC50 (PRMT1) | IC50 (Toledo cells)
CNCCN(C)Cc1ncccc1C1CCN(c2ccc(C(N)=O)cc2)CC1 [P299] | < 50 nM | 
CNCCN(C)Cc1ccccc1N1CCc2ccccc2C1 [P029] | < 50 nM | 
CCOC(=O)c1cnc(Nc2ccc(CN(C)CCNC)c(C3CCN(c4cccc(C)c4)CC3)n2)[nH]1 [P367] | < 50 nM | 
CNCCN(C)Cc1ncccc1N1CCC(OCC(=O)NC)CC1 [P322] | < 50 nM | 
CNCCN(C)Cc1ncccc1C1CCN(C(=O)C(C)C)CC1 [P235] | < 50 nM | 
CNCCN(C)Cc1ccc(NS(C)(=O)=O)nc1C1CCN(c2cccc(C)c2)CC1 [P357] | 50 to 500 nM | 
CNCCN(C)Cc1ccc(NC(=O)NC)nc1C1CCN(c2cccc(C)c2)CC1 [P353] | < 50 nM | 
CNCCN(C)Cc1ncccc1C1CCN(c2ccnnc2)CC1 [P289] | < 50 nM | 
CNCCN(C)Cc1ncccc1C1CCN(C(C)(C)O)CC1 [P244] | < 50 nM | 
CNCCN(C)Cc1ncccc1C1CCN(C)CC1 [P152] | < 50 nM | 
CNCCN(C)Cc1ccc(NC)nc1C1CCN(c2cccc(C)c2)CC1 [P358] | < 50 nM | 
CNCCN(C)Cc1ccc(Nc2ccc(F)cc2)nc1C1CCN(c2cccc(C)c2)CC1 [P354] | 50 to 500 nM | 
CNCCN(C)Cc1ccc2[nH]nnc2c1C1CCN(c2cccc(C)c2)CC1 [P265] | < 50 nM | 
Cc1cccc(N2CCC(c3nc(N)cnc3CN(C)CCN)CC2)c1 [P369] | < 50 nM | 
CNCCN(C)Cc1ccc(CN2CCCC2)nc1C1CCN(c2cccc(C)c2)CC1 [P361] | < 50 nM | 
CNCCN(C)Cc1ccc(C)nc1C1CCN(c2cc(C)c(F)cc2F)CC1 [P062] | < 50 nM | 
CNCCN(C)Cc1ncccc1N1CCC(OCCOC)CC1 [P274] | < 50 nM | 
CNCCN(C)Cc1ccc(OC)nc1C1CCN(c2cccc(C)c2)CC1 [P352] | 50 to 500 nM | 
NCCCCc1ccccc1N1CCc2cc(F)c(F)cc2CC1 [P350] | ≥ 500 nM | 
CNCCN(C)Cc1ncccc1C1CCN(CCOCCOCCOCCOCCOCCN2CCC(c3cccnc3CN(C)CCNC)CC2)CC1 [P257] | < 50 nM | 
CNCCN(C)Cc1ccc(NS(=O)(=O)N(C)C)nc1C1CCN(c2cccc(C)c2)CC1 [P365] | 50 to 500 nM | 
